From PubChem BioAssay AID274 (DTP/NCI, 2004)
Values joined by “and” are separate entries in the source; they are usually repeats but may differ in a detail not shown here. Identical values can stand only once. Inconclusive results and toxic doses are left out. How the source made its calls: active means survival T/C of 150% or more; inactive means T/C below 125% in these data.

System: BDF1 mice, Lewis lung carcinoma iv, survival T/C
Assay: NCI In Vivo Anticancer Drug Screen. Data for tumor model Lewis Lung Carcinoma (intravenous) in B6D2F1 (BDF1) mice
Conditions: endpoint: median survival time, schedule: Q01DX009 (ip), higher = longer survival
Description: The antitumor activity of compounds was measured in mice bearing transplantable tumors. Survival or tumor size were measured and the results are expressed as the measurement made in the treated group (T) divided by the measurement made in the vehicle treated control group (C). The tumor model used in this assay is Lewis Lung Carcinoma (intravenous) in B6D2F1 (BDF1) mice

[1] = dose: 100.0 mg/kg/injection, vehicle: saline with Tween-80
[2] = dose: 200.0 mg/kg/injection, vehicle: saline with Tween-80
[3] = dose: 6.25 mg/kg/injection, vehicle: saline with Tween-80
[4] = dose: 12.5 mg/kg/injection, vehicle: saline with Tween-80
[5] = dose: 25.0 mg/kg/injection, vehicle: saline with Tween-80
[6] = dose: 50.0 mg/kg/injection, vehicle: saline with Tween-80
[7] = dose: 12.5 mg/kg/injection, vehicle: saline
[8] = dose: 25.0 mg/kg/injection, vehicle: saline
[9] = dose: 200.0 mg/kg/injection, vehicle: saline
[10] = dose: 400.0 mg/kg/injection, vehicle: saline
[11] = dose: 25.0 mg/kg/injection, vehicle: water

Measured: T/C

CCCCCCCCCCCCCCCCCCNC(=S)N/N=C/c1ccc(Cl)cc1Cl
inactive: [1] 110 % of control | [2] 108 % of control | dose: 400.0 mg/kg/injection, vehicle: saline with Tween-80 93 % of control

CC(=O)OCC1OC(n2cnc3c(=S)nc[nH]c32)C(OC(C)=O)C1OC(C)=O (stereo not drawn)
inactive: dose: 50.0 mg/kg/injection, vehicle: suspension in saline 100 % of control

C[Si](C)(C)O/C=C1\CCCCC1=O
inactive: [3] 96 % of control and 98 % of control | [4] 96 % of control and 98 % of control | [5] 93 % of control and 102 % of control | [6] 102 % of control and 107 % of control | [1] 104 % of control and 116 % of control | [2] 104 % of control and 113 % of control

C/C=C(\C)c1cc(=O)c2c(C)cc3c(c2o1)C(=O)c1c(O)c(C2CC(C)(N(C)C)C(OC(C)=O)C(C)O2)cc(C2CC(N(C)C)C(O)C(C)O2)c1C3=O (stereo not drawn)
inactive: dose: 0.15 mg/kg/injection, vehicle: saline 104 % of control | dose: 0.31 mg/kg/injection, vehicle: saline 101 % of control | dose: 0.62 mg/kg/injection, vehicle: saline 107 % of control | dose: 1.25 mg/kg/injection, vehicle: saline 98 % of control | dose: 2.5 mg/kg/injection, vehicle: saline 103 % of control | dose: 5.0 mg/kg/injection, vehicle: saline 119 % of control

O=C1N=C(Oc2ccccc2)SC1=O
inactive: [4] 100 % of control and 109 % of control | [5] 97 % of control | [6] 94 % of control and 102 % of control | [1] 100 % of control

O=C(NCCN1CC1)C(=O)NCCN1CC1
inactive: dose: 0.38 mg/kg/injection, vehicle: saline 108 % of control | dose: 0.75 mg/kg/injection, vehicle: saline 110 % of control | dose: 1.5 mg/kg/injection, vehicle: saline 120 % of control | dose: 3.0 mg/kg/injection, vehicle: saline 101 % of control

O=C1CC2(C(=O)N1CN1CCOCC1)c1ccccc1-c1ccccc12
inactive: dose: 50.0 mg/kg/injection, vehicle: Klucel (hydroxypropylcellulose) (HPC) 94 % of control | dose: 100.0 mg/kg/injection, vehicle: Klucel (hydroxypropylcellulose) (HPC) 98 % of control | dose: 200.0 mg/kg/injection, vehicle: Klucel (hydroxypropylcellulose) (HPC) 101 % of control | dose: 400.0 mg/kg/injection, vehicle: Klucel (hydroxypropylcellulose) (HPC) 112 % of control

C[Si](C)(C)O/C=C1/CCOC1=O
inactive: [7] 116 % of control | [8] 101 % of control | dose: 50.0 mg/kg/injection, vehicle: saline 107 % of control | dose: 100.0 mg/kg/injection, vehicle: saline 108 % of control | [9] 93 % of control | [10] 99 % of control

OCCN1CCN(CC/C=C2/c3ccccc3Sc3ccc(Cl)cc32)CC1
inactive: dose: 0.78 mg/kg/injection, vehicle: saline 102 % of control | dose: 1.56 mg/kg/injection, vehicle: saline 111 % of control | dose: 3.12 mg/kg/injection, vehicle: saline 98 % of control | dose: 6.25 mg/kg/injection, vehicle: saline 101 % of control | [7] 100 % of control

COc1ccc(-c2csc(=[N+]3CCCCC3)s2)cc1
inactive: dose: 1.56 mg/kg/injection, vehicle: water 94 % of control | dose: 3.12 mg/kg/injection, vehicle: water 101 % of control | dose: 6.25 mg/kg/injection, vehicle: water 100 % of control | dose: 12.5 mg/kg/injection, vehicle: water 99 % of control | [11] 108 % of control

NC(Cc1ccc(N(CCCl)CCCl)cc1)C(=O)O (stereo not drawn)
inactive: dose: 0.5 mg/kg/injection, vehicle: Klucel (hydroxypropylcellulose) (HPC) 94 % of control | dose: 1.0 mg/kg/injection, vehicle: Klucel (hydroxypropylcellulose) (HPC) 97 % of control | dose: 2.0 mg/kg/injection, vehicle: Klucel (hydroxypropylcellulose) (HPC) 122 % of control

C/C=C/C1=CC(=O)C(O)C1O (stereo not drawn)
inactive: [11] 103 % of control | dose: 50.0 mg/kg/injection, vehicle: water 99 % of control | dose: 100.0 mg/kg/injection, vehicle: water 101 % of control

O=C(O)CC[S-].[Ag+]
inactive: [6] 99 % of control | [1] 102 % of control | [2] 91 % of control

O=C1OC(C(O)CO)C(O)=C1O (stereo not drawn)
inactive: [9] 112 % of control | [10] 100 % of control

O=c1cc(CCl)[nH]nc1CCl
inactive: dose: 3.12 mg/kg/injection, vehicle: saline with Tween-80 98 % of control | [3] 96 % of control | [4] 96 % of control

COC1CC(CC2CCC(C)C(C(C)C(=O)O)O2)OC2(OC(C)(C3CCC(C)(C4OC(C5OC(O)(CO)C(C)CC5C)CC4C)O3)CC2C)C1C (stereo not drawn)
inactive: dose: 0.31 mg/kg/injection, vehicle: Klucel (hydroxypropylcellulose) (HPC) 99 % of control | dose: 0.63 mg/kg/injection, vehicle: Klucel (hydroxypropylcellulose) (HPC) 94 % of control | dose: 1.25 mg/kg/injection, vehicle: Klucel (hydroxypropylcellulose) (HPC) 100 % of control | dose: 5.0 mg/kg/injection, vehicle: Klucel (hydroxypropylcellulose) (HPC) 96 % of control

O=C(C1CO1)C(Cl)(Cl)Cl (stereo not drawn)
inactive: [7] 98 % of control | [8] 102 % of control

COc1cc(C(C)(C)C)cc(OC)c1C(O)(c1c(OC)cc(C(C)(C)C)cc1OC)c1c(OC)cc(C(C)(C)C)cc1OC
inactive: [3] 99 % of control and 106 % of control | [4] 98 % of control and 99 % of control | [5] 97 % of control and 102 % of control | [6] 99 % of control
